This data set in a line: Solubility of Compound A in mediums with various pHs. It is filed as physicochemical. The conditions noted are these: mediums with various pHs including water (Fig. 4). An excerpt: Thus, as shown in Fig. 5 in the results of the dissolution test of the tablets prepared by a conventional means employed for formulation of preparations, such as mixing Compound A with lactose, corn starch, etc. for granulation, adding talc, magnesium stearate, etc. and compressing same, the dissolution property is not entirely satisfactory, reflecting the properties of the compound per se.
Fig. 1 is a graph showing the results of the dissolution test of the fine granules of Reference Example 1 and Example 1 in the 1st fluid and the 2nd fluid, Fig. 2 is a graph showing the results of the dissolution test of the tablets of Reference Example 2 and Example 2 in the 1st fluid and the 2nd fluid, Fig. 3 is a graph showing the results of the dissolution test of the fine granules of Reference Example 1 and Example 3 in the 1st fluid and the 2nd fluid, Fig. 4 is a graph showing the solubilities of Compound A in mediums with various pHs, and Fig. 5 is a graph showing the results of the dissolution test of the tablets prepared by the conventional formulation methods in the 1st fluid and the 2nd fluid.

In the case of `O=c1cc2c(nn1-c1ccc(Cl)cc1)-c1ccccc1[S+]([O-])CC2` (stereo not shown) [Compound A, 2-(4-chlorophenyl)-5,6-dihydro-(1)benzothiepino[5,4-c]pyridazine-3(2H)-one 7-oxide], the solubility result is on record as “slightly soluble”.

For the origin of these results see patent EP0487768A1, “Pharmaceutical composition with improved dissolution property” (YOSHITOMI PHARMACEUTICAL INDUSTRIES, LTD., priority 1990, dated 1992).
